Results taken from patent US8686001B2, “Medicament for treating glaucoma comprising as an active ingredient cyclodextrin-clathrate compound of cilostazol” (Otsuka Pharmaceutical Co., Ltd., priority 2007, dated 2014).

Columns and labels:
[1] = Dissolution experiment of cilostazol nano (nano-CLZ) in HP-β-CD, dissolving method (1) vs (2); format: physicochemical
Procedure: CLZ and an excipient were mixed in a ratio of about 80%:20% to give a nano-CLZ powder. To a nano-CLZ suspension (0.5% CLZ suspension: which was prepared by suspending 120 mg of the nano-CLZ powder in 20 mL of purified water), HP-β-CD powder was added and the mixture was dissolved so that the final concentration of HP-β-CD should be 5-20% (dissolving method (1)); while 120 mg of the nano-CLZ powder was added to a HP-β-CD solution (which was prepared by dissolving HP-β-CD in purified water so that the final concentration of HP-β-CD should be 5-20%), and the mixture was dissolved (the final concentration of CLZ is 0.5%) (dissolving method (2)). Both the above solutions were stirred at 25° C. for 24 hours under the shade, then filtrated with membrane filter (pore size: 0.2 μm), and compared about the solubility of the solutions.
Actually, it needed 30 minutes' stirring for the solution derived from dissolving method (1) to reach the state of the dissolution curve shown in FIG. 2. […] (The above concentrations are shown as weight/volume %.)

[2] = Comparative experiment of manufacturing method: solubility of cilostazol in HP-β-CD, dissolving method (1) vs (2); format: physicochemical
Procedure: To cilostazol suspension (0.5%, suspended in physiological saline) was added HP-β-CD powder so that the final concentration of the HP-β-CD should be 5-20%, and the mixture was completely dissolved (the procedure is termed as “dissolving method (1)”). On the contrary, to HP-β-CD solution (5-20%, dissolved in physiological saline) was added cilostazol powder (final concentration: 0.5%), and the mixture was completely dissolved (the procedure is termed as “dissolving method (2)”). Both the above solutions were stirred at 25° C. for 24 hours under the shade, then filtrated with membrane filter (pore size: 0.2 μm), and compared about the solubility of the solutions. […] Actually, it needed 10 minutes' stirring for the solution derived from dissolving method (1) to reach the state of the dissolution curve shown in FIG. 1. […] (The above concentrations are shown as weight/volume %.)

O=C1CCc2cc(OCCCCc3nnnn3C3CCCCC3)ccc2N1 [cilostazol, 6-[4-(1-cyclohexyl-1H-tetrazol-5-yl)butoxy]-3,4-dihydrocarbostyril]
solubility of cilostazol, dissolving method (1) compared with dissolving method (2) ([1]; nano-CLZ powder, 0.5% CLZ, 5-20% HP-β-CD in purified water, stirred 25° C. 24 hours under the shade, 0.2 μm filtrate, FIG. 2): tended to increase more
stirring needed to reach the state of the dissolution curve ([1]; nano-CLZ, dissolving method (1), FIG. 2): 30 min
solubility after 30 minutes stirring relative to the solubility shown in FIG. 2 ([1]; nano-CLZ, dissolving method (2)): half or less
solubility of cilostazol, dissolving method (1) compared with dissolving method (2) ([2]; 0.5% cilostazol, 5-20% HP-β-CD in physiological saline, stirred 25° C. 24 hours under the shade, 0.2 μm filtrate, FIG. 1): tended to increase more
stirring needed to reach the state of the dissolution curve ([2]; dissolving method (1): HP-β-CD powder added to cilostazol suspension, FIG. 1): 10 min
solubility after 10 minutes stirring relative to the solubility shown in FIG. 1 ([2]; dissolving method (2): cilostazol powder added to HP-β-CD solution): one fifth or less
